The record followed here is patent EP3995502A1, “4-HYDROXYPHENYL PHOSPHONIUM SALTS WITH ANTI-PARASITIC PROPERTIES” (priority 2019, dated 2021).

Series [1] relates to L. infantum promastigotes. The series can be described thus: Leishmanicidal activity on promastigotes of clinical isolates of L. infantum. It is filed as cell-based. An excerpt: (§1) The data represent the mean ± standard deviation of 3 independent experiments. ^b SI = selectivity index (EC50 THP-1 / EC50 parasite (amastigote form)). ^c not assayed. ^d Sensitivity data obtained in L. infantum LEM3049. ^eAmphotericin B. ^fMiltefosine.
(§2) ^aClinical isolates of L. infantum used: LEM 3049 as a reference line; LEM 3323, resistant to Sb^III; LEM 5159, resistant to miltefosine (MIL) and LEM 2126, resistant to MIL and paromomycin. Amphotericin B (AmB) was used as a reference drug. The data represent the mean ± standard deviation of 3 independent experiments.

For series [2], the system named is L. infantum intracellular amastigotes. Kind of series: Leishmanicidal activity on intracellular amastigotes of clinical isolates of L. infantum. It is filed as cell-based.
Text: as §1, §2

For series [3], the system named is THP-1 cells.
Series [4] relates to L. donovani promastigotes. The series can be described thus: In vitro leishmanicidal activity, MTT colorimetric method, promastigotes. As to conditions: read-out: EC50 (µM) L. donovani promastigotes. For orientation: Tetrazolium assays rely on reduction of a dye to a coloured formazan, in cell work by metabolically active cells.
The test system of series [5] is L. donovani intracellular amastigotes. The series can be described thus: In vitro leishmanicidal activity, MTT colorimetric method, intracellular amastigotes. As to conditions: read-out: EC50 (µM) L. donovani intracellular amastigotes.
The subject of series [6] is T. brucei (strain s427 of T. b. brucei). Kind of series: In vitro trypanocidal activity, sensitive strain s427. Conditions: Trypanosoma brucei, read-out: EC50 (µM) T. brucei. Format: cell-based.
Another series deals with T. brucei B48. Kind of series: microbe, parasite or virus in culture. As to conditions: for EC50: Trypanosoma brucei, read-out: EC50 (µM) T. brucei B48. More on the design: RF: unit not given here. Format: cell-based, T. b. brucei.
Series [7] has as its system THP-1 cells. The series can be described thus: cells. Conditions: Homo sapiens, THP-1, read-out: EC50 (µM) THP-1 cells.
The conditions of series [8]: human, liver microsomes. A general note: Microsomes from liver hold many membrane-bound enzymes, among them those of drug oxidation.
Series [9] in a line: in vitro. As to conditions: human, liver microsomes.
The nature of series [10]: in vitro. Conditions: human, liver S9 fraction.
[11] abbreviates: selectivity index (EC50 THP-1 / EC50 parasite (amastigote form)), L. donovani.
[12] abbreviates: strain HU3, mean ± standard deviation of 3 independent experiments.
Setting [13] is: strain s427 of T. b. brucei, mean ± standard deviation of 3 independent experiments.

One may read the EC50 as the concentration needed to bring the measured effect to its halfway point. As a reminder, the half-life is the time needed for the level to fall by half in the phase considered.

Molecules are shown by their SMILES. Like-named read-outs stand apart in the source and are kept apart here.

In the case of `C[C@@H]1[C@H](O)[C@@H](C)/C=C/C=C/C=C/C=C/C=C/C=C/C=C/[C@H](O[C@@H]2O[C@H](C)[C@@H](O)[C@H](N)[C@@H]2O)C[C@@H]2O[C@](O)(C[C@@H](O)C[C@@H](O)[C@H](O)CC[C@@H](O)C[C@@H](O)CC(=O)O[C@H]1C)C[C@H](O)[C@H]2C(=O)O` [AmB, Amphotericin B], the concentration giving a half-maximal response (EC50) was found to be 0.06 ± 0.02 µM in series [1] (L. infantum LEM3049, reference line, read-out: EC50 (µM) Promastigotes); 0.07 ± 0.03 µM in series [1] (L. infantum LEM3323, resistant to SbIII, read-out: EC50 (µM) Promastigotes); 0.05 ± 0.01 µM in series [1] (L. infantum LEM5159, resistant to miltefosine, read-out: EC50 (µM) Promastigotes); 0.1 ± 0.02 µM in series [1] (L. infantum LLM2126, resistant to MIL and paromomycin, read-out: EC50 (µM) Promastigotes); 0.17 ± 0.02 µM in [2] (L. infantum LEM3049, reference line, read-out: EC50 (µM) Intracellular amastigotes); 0.18 ± 0.02 µM in [2] (L. infantum LEM3323, resistant to SbIII, read-out: EC50 (µM) Intracellular amastigotes). Moreover, the EC50 in [2] (L. infantum LEM5159, resistant to miltefosine, read-out: EC50 (µM) Intracellular amastigotes) is 0.16 ± 0.03 µM; in [2] (L. infantum LLM2126, resistant to MIL and paromomycin, read-out: EC50 (µM) Intracellular amastigotes), 0.16 ± 0.01 µM; in the series with THP-1 cells [3] (read-out: EC50 (µM) THP-1 cells, human THP-1 cells, cytotoxicity), 27.9 µM; in series [4] (setting [12]), 0.13 ± 0.02 µM; in series [5] (setting [12]), 0.24 µM. This compound also yielded an SI with THP-1 cells [3] (setting [11]) of 116.0.
As to `N=C(N)c1ccc(/N=N/Nc2ccc(C(=N)N)cc2)cc1` [Dimin, Diminazene], the EC50 in series [6] was found to be 0.101 µM; in the series on T. brucei B48 it was 1.33 ± 0.14 µM.
In the series with THP-1 cells [3] (setting [11]), `CCCCCCCCCCCCCCCCOP(=O)([O-])OCC[N+](C)(C)C` [MIL, Miltefosine] returned an SI of 28.8. Further, the EC50 amounted to 26.2 ± 2.58 µM with THP-1 cells [7], 6.51 ± 0.35 µM in series [4] (Leishmania donovani) and 0.91 ± 0.05 µM in series [5] (Leishmania donovani).
With `N=C(N)c1ccc(OCCCCCOc2ccc(C(=N)N)cc2)cc1` [Pent, Pentamidine], the EC50 turned out to be 0.0033 ± 0.0006 µM in [6] (setting [13]) and 0.55 ± 0.03 µM with T. brucei B48.
`Cc1cc(O)ccc1C(=O)CCCCCCCCCCCCCCC[P+](c1ccccc1)(c1ccccc1)c1ccccc1.[Br-]` [compound 2, (16-(4-hydroxy-2-methylphenyl)-16-oxohexadecyl)triphenylphosphonium bromide]: the EC50 in series [6] (setting [13]) was found to be 0.043 µM; in the series with T. brucei B48 it was 0.044 µM; in the series with THP-1 cells [7], 2.45 ± 0.41 µM; in series [4] (Leishmania donovani) it was 0.09 ± 0.01 µM; in series [5] (Leishmania donovani), 0.1 ± 0.01 µM. In the series on T. brucei B48, this compound displayed an RF of 1.01. In the series with THP-1 cells [3], this compound yielded an SI of 24.5.
As for `Cc1cc(O)ccc1C(=O)CCCCCCCCCCCCCCC[P+](c1ccccc1)(c1ccccc1)c1ccccn1.[Br-]` [compound 3, (16-(4-hydroxy-2-methylphenyl)-16-oxohexadecyl)diphenyl(pyridin-2-yl)phosphonium bromide], the EC50 in series [6] (setting [13]) worked out at 0.107 µM; in the series with T. brucei B48 it was 0.096 µM; in the series with THP-1 cells [7] it was 2.11 ± 0.12 µM; in [4] (Leishmania donovani), 0.28 ± 0.05 µM; in series [5] (Leishmania donovani), 0.1 ± 0.02 µM. In the series with T. brucei B48, this compound showed an RF of 0.90. Moreover, the SI in the series with THP-1 cells [3] is on record as 21.1.
Turning to `O=C(CCCCCCCCCCCCCCC[P+](c1cccc2ccccc12)(c1cccc2ccccc12)c1cccc2ccccc12)c1ccc(O)cc1O.[Br-]` [compound 4, (16-(2,4-dihydroxyphenyl)-16-oxohexadecyl)tri(naphthalen-1-yl)phosphonium bromide], the half-maximal effective concentration (EC50) in series [1] (Leishmania infantum, footnote d: sensitivity data obtained in L. infantum LEM3049, read-out: EC50 (µM) L. donovani promastigotes) was 3.54 ± 0.36 µM; in [2] (Leishmania infantum, footnote d: sensitivity data obtained in L. infantum LEM3049, read-out: EC50 (µM) L. donovani intracellular amastigotes), 1.25 ± 0.22 µM; with THP-1 cells [7] it was 12.8 ± 2.3 µM. The compound also showed an SI with THP-1 cells [3] (selectivity index (EC50 THP-1 / EC50 parasite (amastigote form)), parasite data from L. infantum LEM3049) of 10.3.
Regarding `O=C(O)Cc1ccccc1Nc1c(Cl)cccc1Cl` [diclofenac], the intrinsic clearance result in series [8] is reported as “high”. In addition, the half-life in the series “in vitro [9]” and in “in vitro [10]” was less than 30 min throughout.
